Test system: gene expression in etiolated eto1-4 seedlings
Test: Transcriptional profiling (ATH1 GeneChip microarray) of etiolated eto1-4 seedlings
Format: in vivo, Arabidopsis thaliana
Method: For chemical treatments, seeds were sown on 0.5×MS agar medium supplemented with 10 μM chemicals (AVG, compounds 9393, 9370, and 7303) or DMSO (as control). Arabidopsis seeds were stratified in the dark at 4° C. for 4 days, then germinated in the dark for 3 days at 22° C. Approximately 2,000 etiolated seedlings of the wild type or eto1-4 were used to collect tissues for preparation of total RNA in each microarray experiment with Arabidopsis ATH1 GeneChip (Affymetrix). Extraction of RNA followed an established protocol (Chang, et al. (1993) Plant Mol. Biol. Rep. 11, 113-117). Total RNA (10 μg) was used to prepare biotinylated cRNA for hybridization to ATH1 GeneChip in the experiments disclosed herein. Experiments were repeated by 2 independent biological duplicates, and candidate genes present in both experiments were selected for further analysis. The MASS method was used for data analysis and normalization by all sample medium. Candidate genes were selected by the following criteria. First, genes with 1.5-fold differential expression between the wild type and eto1-4 were selected as the master gene pool, which was then used for comparison in treatments with AVG and individual exemplary compounds. Data were presented in hierarchical clustering and Venn diagram format. Agilent GeneSpring GX and Bioconductor software were used to analyze the expression profile data. Gene Ontology descriptions were generated by GeneSpring GX and further referred to the TAR GO database. Raw data are available in the GEO database (http://www.ncbi.nlm.nih.gov/geo) with Accession no. GSE20897.
The filtered and normalized expression data set from 22810 probes on the ATH1 Genechip was used for hierarchical clustering of gene expression profiles for comparison between AVG and the exemplary invention compounds in eto1-4. It was identified that 1,446 genes show at least 1.5-fold difference in expression between the WT and eto1-4 and used them as the master gene pool for clustering analysis (FIG. 7A). […] These genes likely contribute to the etiolated phenotype of eto1-4 by responding to elevated endogenous ethylene. To determine whether the exemplary compounds have specific r overlapping functions with AVG to suppress the eto1-4 phenotype, genes that are regulated by individual exemplary invention compounds and AVG for Venn diagram analysis were clustered (FIG. 7B). More than 63% of genes (356/561 for compound 9393; 389/561 for compound 9370; 399/561 for compound 7303; FIG. 7B) with expression associated with AVG were co-regulated by the exemplary invention compounds, which indicates an overlap function in suppression of the ethylene phenotype in eto1-4. […] Next genes co-regulated by all of the exemplary invention compounds and AVG were examined by performing a clustering analysis using the co-regulated genes identified in FIG. 7B: 356 (compound 9393 vs AVG), 389 (compound 9370 vs AVG) and 399 genes (compound 7303 vs AVG). It was uncovered that 276 genes were co-regulated by all of the exemplary invention compounds and AVG (FIG. 7C and Table 2). On the basis of GO descriptions generated by Gene Spring GX and TAIR database, the 276 genes were divided into subgroups related to their biological functions (Table 2). […] In addition, stress- and pathogenesis-related genes were among the co-regulated genes, possibly because ethylene is involved in both biotic and abiotic stresses.
Genes (1446 non-redundant loci) were selected by 1.5-fold differential expression between eto1-4 and WT as the master pool for analysis. These genes were used for comparison between chemical treatments by AVG and the exemplary invention compounds. The finalized 276 genes that are co-regulated by AVG and all of the exemplary invention compounds are shown. Locus ID also present in Nemhauser et al. (Nemhauser, et al. (2006) Cell 126, 467-475).

[1] = of 1446 genes differentially expressed between WT and eto1-4, 10 μM
[2] = ratio eto1-4 treated to eto1-4 (no treatment)

CC1(C)CC(=O)c2cnc(NC3CCCC3)nc2C1 [Compound 9393]
number of genes co-regulated with AVG (of 561 genes associated with AVG, 10 μM): 356 genes
number of genes regulated (expression reverted close to WT) [1]: 629 genes
percentage of genes regulated (expression reverted close to WT) [1]: 43.5%
number of genes regulated specifically, not related to AVG treatment (of all genes regulated by the compound (629, 728, 650), 10 μM): 273 genes
Signal Fold Change AT1G03457, unknown biological function [2]: 2.24
Signal Fold Change AT1G03660, unknown biological function [2]: 1.84
Signal Fold Change AT1G05010 ACC oxidase [2]: 0.28
Signal Fold Change AT1G05760 jacalin lectin protein [2]: 2.69
Signal Fold Change AT1G06720 expressed protein [2]: 1.15
Signal Fold Change AT1G07280, unknown biological function [2]: 0.44
Signal Fold Change AT1G07560 leucine-rich repeat protein kinase [2]: 2.23
Signal Fold Change AT1G08650 phosphoenolpyruvate carboxylase kinase [2]: 1.96
Signal Fold Change AT1G08990 glycogenin glucosyltransferase [2]: 1.61
Signal Fold Change AT1G09530 phytochrome interacting factor 3 [2]: 0.35
Signal Fold Change AT1G10760 starch excess protein (SEX1) [2]: 0.46
Signal Fold Change AT1G13430, response to cytokinin stimulus, sulfotransferase protein [2]: 0.38
Signal Fold Change AT1G14540 anionic peroxidase [2]: 0.46
Signal Fold Change AT1G15380 lactoylglutathione lyase [2]: 1.96
Signal Fold Change AT1G17970, unknown biological function [2]: 2.17
Signal Fold Change AT1G18880 proton-dependent oligopeptide transport (POT) protein [2]: 2.00
Signal Fold Change AT1G20190, cell wall organization and biogenesis, expansin (EXP11) [2]: 0.43
Signal Fold Change AT1G22740 Ras-related protein (RAB7) [2]: 2.34
Signal Fold Change AT1G23060, unknown biological function [2]: 0.40
Signal Fold Change AT1G26930, unknown biological function [2]: 0.50
Signal Fold Change AT1G27380 p21-rho-binding domain-containing protein [2]: 2.10
Signal Fold Change AT1G29520, unknown biological function [2]: 1.83
Signal Fold Change AT1G30750, unknown biological function [2]: 2.23
Signal Fold Change AT1G31710 copper amine oxidase [2]: 3.17
Signal Fold Change AT1G32410 vacuolar protein sorting 55 protein [2]: 1.62
Signal Fold Change AT1G32560 late embryogenesis abundant group 1 domain-containing protein [2]: 1.35
Signal Fold Change AT1G33470, unknown biological function [2]: 2.32
Signal Fold Change AT1G33790, unknown biological function [2]: 0.20
Signal Fold Change AT1G34040, unknown biological function [2]: 1.69
Signal Fold Change AT1G35350, unknown biological function [2]: 3.85
Signal Fold Change AT1G35612, unknown biological function [2]: 3.38
Signal Fold Change AT1G42470, unknown biological function [2]: 4.11
Signal Fold Change AT1G44800, unknown biological function [2]: 1.86
Signal Fold Change AT1G44830 AP2-containing transcription factor [2]: 0.34
Signal Fold Change AT1G48480 leucine-rich repeat trans-membrane protein kinase [2]: 2.65
Signal Fold Change AT1G49660 expressed protein [2]: 0.38
Signal Fold Change AT1G50560 cytochrome P450 [2]: 1.77
Signal Fold Change AT1G52830 auxin-responsive protein [2]: 3.44
Signal Fold Change AT1G56010 transcription activator NAC1 [2]: 2.29
Signal Fold Change AT1G56020, unknown biological function [2]: 0.60
Signal Fold Change AT1G58070, unknown biological function [2]: 2.13
Signal Fold Change AT1G59590, unknown biological function [2]: 2.57
Signal Fold Change AT1G59740 proton-dependent oligopeptide transport (POT) protein [2]: 0.46
Signal Fold Change AT1G62290 aspartyl protease protein [2]: 0.32
Signal Fold Change AT1G62510 lipid transfer protein [2]: 1.63
Signal Fold Change AT1G62620, unknown biological function [2]: 2.65
Signal Fold Change AT1G64200 V-ATPase E subunit [2]: 2.10
Signal Fold Change AT1G65510, unknown biological function [2]: 2.13
Signal Fold Change AT1G65920, unknown biological function [2]: 0.37
Signal Fold Change AT1G66230 myb transcription factor (MYB20) [2]: 3.04
Signal Fold Change AT1G67030 zinc finger (C2H2 type) protein [2]: 6.01
Signal Fold Change AT1G68230, unknown biological function [2]: 2.42
Signal Fold Change AT1G68520 zinc finger (B-box type) protein [2]: 2.45
Signal Fold Change AT1G69570 Dof-type zinc finger-containing protein [2]: 3.88
Signal Fold Change AT1G70210 cyclin delta-1 [2]: 3.05
Signal Fold Change AT1G70850 Bet v I allergen protein [2]: 7.24
Signal Fold Change AT1G70890 major latex protein [2]: 5.37
Signal Fold Change AT1G71030 myb transcription factor (MYB2) [2]: 4.86
Signal Fold Change AT1G71740, unknown biological function [2]: 2.19
Signal Fold Change AT1G72230 plastocyanin like protein [2]: 2.45
Signal Fold Change AT1G73220 sugar transporter protein [2]: 2.95
Signal Fold Change AT1G73300 serine carboxypeptidase S10 protein [2]: 1.94
Signal Fold Change AT1G73310 serine carboxypeptidase S10 protein [2]: 2.66
Signal Fold Change AT1G73330 protease inhibitor [2]: 2.84
Signal Fold Change AT1G73590 auxin efflux carrier protein [2]: 2.02
Signal Fold Change AT1G73640, small GTPase mediated signal transduction, Ras-related GTP-binding protein [2]: 1.94
Signal Fold Change AT1G73830 bHLH protein [2]: 0.28
Signal Fold Change AT1G75500, unknown biological function [2]: 3.12
Signal Fold Change AT1G76220, unknown biological function [2]: 3.40
Signal Fold Change AT1G76500, photomorphogenesis, DNA-binding protein [2]: 0.39
Signal Fold Change AT1G76540 cell division control protein [2]: 2.16
Signal Fold Change AT1G76790, unknown biological function [2]: 2.90
Signal Fold Change AT1G78240 dehydration-responsive protein [2]: 0.49
Signal Fold Change AT1G80380 phosphoribulokinase [2]: 2.17
Signal Fold Change AT2G01910, microtubule nucleation, microtubule associated protein (MAP65/ASE1) protein [2]: 2.21
Signal Fold Change AT2G02820 myb transcription factor (MYB88) [2]: 3.34
Signal Fold Change AT2G02850 plantacyanin [2]: 0.27
Signal Fold Change AT2G16580 auxin-responsive protein [2]: 2.33
Signal Fold Change AT2G16990, unknown biological function [2]: 2.49
Signal Fold Change AT2G19590 ACC oxidase [2]: 0.29
Signal Fold Change AT2G19970, unknown biological function [2]: 2.19
Signal Fold Change AT2G20080, unknown biological function [2]: 4.77
Signal Fold Change AT2G20670, unknown biological function [2]: 2.36
Signal Fold Change AT2G21820, unknown biological function [2]: 1.08
Signal Fold Change AT2G21880 Ras-related GTP-binding protein [2]: 3.83
Signal Fold Change AT2G22860 phytosulfokines 2 (PSK2) [2]: 2.20
Signal Fold Change AT2G24150 expressed protein (response to hormone stimulus) [2]: 2.23
Signal Fold Change AT2G25900 zinc finger (CCCH-type) protein [2]: 1.27
Signal Fold Change AT2G26070 expressed protein (response to ethylene stimulus) [2]: 0.32
Signal Fold Change AT2G26440 pectinesterase protein [2]: 0.36
Signal Fold Change AT2G26740 epoxide hydrolase [2]: 0.29
Signal Fold Change AT2G27140 heat shock protein [2]: 2.32
Signal Fold Change AT2G27370, unknown biological function [2]: 1.90
Signal Fold Change AT2G28305, unknown biological function [2]: 2.70
Signal Fold Change AT2G28410, unknown biological function [2]: 2.86
Signal Fold Change AT2G29340 short-chain dehydrogenase [2]: 0.47
Signal Fold Change AT2G29440, toxin catabolic process, glutathione S-transferase [2]: 0.31
Signal Fold Change AT2G30360 CBL-interacting protein kinase 11 (CIPK11) [2]: 1.81
Signal Fold Change AT2G33380 calcium-binding RD20 protein [2]: 0.26
Signal Fold Change AT2G33990, unknown biological function [2]: 2.38
Signal Fold Change AT2G34300, unknown biological function [2]: 0.40
Signal Fold Change AT2G34500 cytochrome P450 [2]: 3.82
Signal Fold Change AT2G34510, unknown biological function [2]: 2.66
Signal Fold Change AT2G34700, unknown biological function [2]: 1.10
Signal Fold Change AT2G35300 late embryogenesis abundant group 1 domain-containing protein [2]: 1.93
Signal Fold Change AT2G35710 glycogenin glucosyltransferase [2]: 2.39
Signal Fold Change AT2G36350 protein kinase [2]: 0.54
Signal Fold Change AT2G36410, unknown biological function [2]: 2.46
Signal Fold Change AT2G37130 peroxidase 21 [2]: 1.93
Signal Fold Change AT2G38760, unknown biological function [2]: 2.89
Signal Fold Change AT2G38790, unknown biological function [2]: 1.78
Signal Fold Change AT2G39010 aquaporin [2]: 1.84
Signal Fold Change AT2G39310, unknown biological function [2]: 1.97
Signal Fold Change AT2G39980, unknown biological function [2]: 0.14
Signal Fold Change AT2G40420 amino acid transporter [2]: 1.87
Signal Fold Change AT2G41090, unknown biological function [2]: 0.26
Signal Fold Change AT2G41230, unknown biological function [2]: 0.08
Signal Fold Change AT2G42320, unknown biological function [2]: 0.55
Signal Fold Change AT2G43050 pectinesterase protein [2]: 2.06
Signal Fold Change AT2G43535 trypsin inhibitor [2]: 4.42
Signal Fold Change AT2G44110 seven transmembrane MLO protein [2]: 0.45
Signal Fold Change AT2G44130 kelch repeat containing F-box protein [2]: 3.36
Signal Fold Change AT2G47510 fumarate hydratase [2]: 0.53
Signal Fold Change AT2G47550 pectinesterase protein [2]: 0.39
Signal Fold Change AT2G48030, unknown biological function [2]: 2.18
Signal Fold Change AT3G04010 glycosyl hydrolase [2]: 2.09
Signal Fold Change AT3G05990, signal transduction, phosphodiesterase leucine-rich repeat protein [2]: 2.05
Signal Fold Change AT3G09020, unknown biological function [2]: 2.36
Signal Fold Change AT3G09780 protein kinase [2]: 0.55
Signal Fold Change AT3G10080, unknown biological function [2]: 2.22
Signal Fold Change AT3G10340 phenylalanine ammonia-lyase [2]: 2.17
Signal Fold Change AT3G11550, unknown biological function [2]: 2.20
Signal Fold Change AT3G12030, DNA repair, expressed protein [2]: 1.73
Signal Fold Change AT3G12500 basic endocexemplary inase [2]: 1.85
Signal Fold Change AT3G13980, unknown biological function [2]: 6.83
Signal Fold Change AT3G14370 protein kinase [2]: 0.30
